Like-named read-outs stand apart in the source and are kept apart here.
How the values were obtained:
[1] = biological target: 229E Mpro (Human coronavirus 229E, UniProt P0C6X1); assay: 229E Mpro enzymatic assay (standard methods, SARS-CoV2 Mpro assay given as exemplary); type: biochemical, human coronavirus (HCov) 229E
How it was run: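 IC50 for 229E Mpro by standard methods; exemplary SARS-CoV-2 protocol used C-His6-tagged Mpro from E. coli, 25 nM enzyme, 25 μM substrate (Km 13.5 μM), in Tris-HCl pH 7.3, NaCl, EDTA, TCEP, 0.1% BSA. Inhibition normalised to no-compound and full-effect controls; four-parameter fit.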

[2] = system: HCoV 229E; assay: HCoV 229E cytopathic effect (CPE) assay, CellTiter Glo; type: cell-based, human coronavirus (HCov) 229E; conditions: protection of virus-induced CPE
Procedure: Example 238: Evaluation of antiviral activity of compounds against human coronavirus (HCov) 229E and OC43 in the cytopathic effect (CPE) assays
Compounds were assayed using standard methods against multiple coronaviral strains, including HCoV 229E and OC43 strains. The antiviral activity of compounds was calculated based on the protection of the virus-induced CPE at each concentration normalized by the virus control.
Cytopathic effect (CPE) was measured by CellTiter Glo following the manufacturer's manual. The antiviral activity of compounds was calculated based on the protection of the virus-induced CPE at each concentration normalized by the virus control.
Cell viability was measured with CellTiter Glo.

[3] = system: HCov OC43; assay: HCoV OC43 cytopathic effect (CPE) assay, CellTiter Glo; type: cell-based, human coronavirus (HCov) OC43
[4] = biological target: COVID-19 (nCoV-2019, SARS-CoV2) Mpro (Severe acute respiratory syndrome coronavirus 2, UniProt P0DTD1); assay: COVID-19 (nCoV-2019, SARS-CoV2) Mpro enzymatic assay; type: biochemical; conditions: 25 nM Mpro, 25 μM substrate; read-out: COVID-19 Mpro IC50
[5] = read-out: OC43 IC50 (uM) MEDIAN, median
[6] = Betacoronavirus 1, OC43, read-out: OC43 IC50 (uM) MEDIAN, median

229E Mpro, sequence (P0C6X1 2966-3267): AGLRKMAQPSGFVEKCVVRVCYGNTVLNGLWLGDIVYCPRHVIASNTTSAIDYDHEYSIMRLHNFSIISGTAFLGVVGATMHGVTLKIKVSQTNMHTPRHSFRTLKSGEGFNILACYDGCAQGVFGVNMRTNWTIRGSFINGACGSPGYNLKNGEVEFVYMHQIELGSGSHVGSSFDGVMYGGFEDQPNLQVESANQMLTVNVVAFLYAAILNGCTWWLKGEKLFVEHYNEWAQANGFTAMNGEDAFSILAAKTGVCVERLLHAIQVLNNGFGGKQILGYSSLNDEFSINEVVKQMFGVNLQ

| SMILES | IC50 [4] [nM] | EC50 ([1]; 229E Mpro EC50) [nM] | EC50 ([2]; unidentified human coronavirus) [nM] | IC50 [3, 6] [µM] | also measured |
| --- | --- | --- | --- | --- | --- |
| COCCNC(=O)C(c1cccnc1)N(C(=O)[C@H]1C[C@@H](O)CN1C#N)c1ccc(C(C)(C)C)cc1 (single isomer, unassigned) [627 Isomer 2] | 2000 to 10000 |  |  |  | EC50 ([1]; read-out: 229E Mpro EC50): < 2000 nM; EC50 [2]: 2000 to 10000 nM; IC50 [3, 5]: 10 to 30 µM |
| CC(C)(C)O[C@@H]1C[C@H](C(=O)N(c2ccc(C(C)(C)C)cc2)C(C(=O)NC2CCCCC2)c2cccnc2)N(C#N)C1 (single isomer, unassigned) [Compound 299 Isomer 2] | < 2000 | < 2000 | < 2000 |  | IC50 ([3]; read-out: OC43 IC50 (uM) MEDIAN, median, listed as 299 Isomer 2): 2 to 10 µM |
| Cn1cnnc1C(C(=O)NC1CCCCC1)N(C(=O)[C@H]1C[C@@H](O)CN1C#N)c1ccc(C(C)(C)C)cc1 (single isomer, unassigned) [659 Isomer 1] | 2000 to 10000 | < 2000 | < 2000 |  | IC50 [3, 5]: 10 to 30 µM |
| CC(C)(O)CNC(=O)C(c1cccnc1)N(C(=O)[C@H]1CCCN1C#N)c1ccc(C(C)(C)C)cc1 (stereo partly drawn) [Compound 1119] | 2000 to 10000 | < 2000 | 2000 to 10000 | 2 to 10 |  |
| CC(C)(C)c1ccc(N(C(=O)[C@H]2CCCN2C#N)C(C(=O)NCC2COC2)c2cccnc2)cc1 (single isomer, unassigned) [Compound 419 Isomer 1] | < 2000 | < 2000 | 2000 to 10000 | 2 to 10 |  |
| CN(C)C(=O)CNC(=O)C(c1cccnc1)N(C(=O)[C@H]1CCCN1C#N)c1ccc(C(C)(C)C)cc1 (stereo partly drawn) [Compound 415, (2R)—N-(4-(tert-butyl)phenyl)-1-cyano-N-(2-((2-(dimethylamino)-2-oxoethyl)amino)-2-oxo-1-(pyridin-3-yl)ethyl)pyrrolidine-2-carboxamide] | 2000 to 10000 | < 2000 | 2000 to 10000 | 2 to 10 |  |
| N#CN1C[C@H](O)C[C@@H]1C(=O)N(c1ccc(C2CC2)c(F)c1)C(C(=O)NC1CCCCC1)c1cccnc1 (single isomer, unassigned) [Compound 767 Isomer 1] | < 2000 | < 2000 | 2000 to 10000 | < 2 |  |
| CC(C)(C)c1ccc(N(C(=O)[C@H]2C[C@@H](O)CN2C#N)C(C(=O)Nc2c(Cl)cccc2Cl)c2cccnc2)cc1 (stereo partly drawn) [Compound 591, (2R,4R)—N-(4-(tert-butyl)phenyl)-1-cyano-N-(2-((2,6-dichlorophenyl)amino)-2-oxo-1-(pyridin-3-yl)ethyl)-4-hydroxypyrrolidine-2-carboxamide] | 2000 to 10000 | 2000 to 10000 | 2000 to 10000 | > 30 |  |
| CO[C@H]1C[C@H](C(=O)N(c2ccc(C(C)(C)C)cc2)C(C(=O)NC2CCCCC2)c2cccnc2)N(C#N)C1 (single isomer, unassigned) [Compound 293 Isomer 1] | < 2000 | < 2000 | < 2000 |  | IC50 ([3]; read-out: OC43 IC50 (uM) MEDIAN, median, listed as 293 Isomer 1): < 2 µM |
| CC(C)(C)c1ccc(N(C(=O)[C@H]2CC(=O)CN2C#N)C(C(=O)NC2CCCCC2)c2cccnc2)cc1 (single isomer, unassigned) [Compound 278 Isomer 2] | 2000 to 10000 |  | 2000 to 10000 |  | EC50 ([1]; read-out: 229E Mpro EC50): < 2000 nM; IC50 [3, 5]: 10 to 30 µM |
| COC(C)(C)CNC(=O)C(c1cccnc1)N(C(=O)[C@H]1CCCN1C#N)c1ccc(C(C)(C)C)cc1 (single isomer, unassigned) [Compound 427 Isomer 2] | < 2000 | < 2000 | < 2000 |  | IC50 ([3]; read-out: OC43 IC50 (uM) MEDIAN, median, listed as 427 Isomer 2): 2 to 10 µM |
| CC(C)(C)c1ccc(N(C(=O)[C@H]2C[C@@H](O)CN2C#N)C(C(=O)NC2CCCC2)c2cccnc2)cc1 (single isomer, unassigned) [595 Isomer 1] | 2000 to 10000 | < 2000 | 2000 to 10000 | 2 to 10 |  |
| CC(C)(C)c1ccc(N(C(=O)[C@H]2C[C@@H](O)CN2C#N)C(C(=O)NCCN2CCOCC2)c2cccnc2)cc1 (single isomer, unassigned) [587 Isomer 1] | < 2000 | < 2000 | < 2000 | < 2 |  |
| CC(C)(C)c1ccc(N(C(=O)[C@H]2C[C@@H](F)CN2C#N)C(C(=O)NC2CCCCC2)c2cccnc2)cc1 (single isomer, unassigned) [Compound 870 Isomer 1] | < 2000 | < 2000 | < 2000 | < 2 |  |
| Cc1c[nH]c2cc(N(C(=O)[C@H]3C[C@@H](O)CN3C#N)C(C(=O)NC3CCC(F)(F)CC3)c3cncc(F)c3)ccc12 (single isomer, unassigned) [Compound 747b Isomer 1] | < 2000 | < 2000 | 2000 to 10000 | < 2 |  |
| CC(C)(C)c1ccc(N(C(=O)C2CS(=O)(=O)CCN2C#N)C(C(=O)NC2CCCCC2)c2cccnc2)cc1 (stereo not drawn) [Compound 226] | < 2000 | < 2000 | 2000 to 10000 | 2 to 10 |  |
| CC(C)(C)c1ccc(N(C(=O)[C@H]2CCCN2C#N)C(C(=O)NCC(=O)N2CCOCC2)c2cccnc2)cc1 (stereo partly drawn) [Compound 403, (2R)—N-(4-(tert-butyl)phenyl)-1-cyano-N-(2-((2-morpholino-2-oxoethyl)amino)-2-oxo-1-(pyridin-3-yl)ethyl)pyrrolidine-2-carboxamide] | < 2000 | < 2000 | 2000 to 10000 | 2 to 10 |  |
| CC(C)(C)c1ccc(N(C(=O)[C@H]2C[C@@H](Oc3ccccc3)CN2C#N)C(C(=O)NC2CCCCC2)c2cccnc2)cc1 (single isomer, unassigned) [307 Isomer 1] | < 2000 | < 2000 | < 2000 | < 2 |  |
| N#CN1C[C@H](O)C[C@@H]1C(=O)N(c1ccc(S(F)(F)(F)(F)F)cc1)C(C(=O)NC1CCCCC1)c1cccnc1 (single isomer, unassigned) [Compound 791 Isomer 2] | 2000 to 10000 |  | < 2000 |  | EC50 ([1]; read-out: 229E Mpro EC50): < 2000 nM; IC50 [3, 5]: < 2 µM |
| C[C@@]1(O)C[C@H](C(=O)N(c2ccc(S(F)(F)(F)(F)F)cc2)C(C(=O)NC2CCC(F)(F)CC2)c2cccnc2)N(C#N)C1 (single isomer, unassigned) [Compound 1156 Isomer 1] | 2000 to 10000 | < 2000 | < 2000 | 2 to 10 |  |
| CN(C)CCNC(=O)C(c1cccnc1)N(C(=O)[C@H]1CCCN1C#N)c1ccc(C(C)(C)C)cc1 (single isomer, unassigned) [Compound 435 Isomer 1] | 2000 to 10000 | < 2000 | 2000 to 10000 |  | IC50 ([3]; read-out: OC43 IC50 (uM) MEDIAN, median, listed as 435 Isomer 1): 2 to 10 µM |
| CC(C)(C)c1ccc(N(C(=O)[C@H]2C[C@H](O)CN2C#N)C(C(=O)NC2CCCCC2)c2cccnc2)cc1 (single isomer, unassigned) [Compound 255 Isomer 1] | 2000 to 10000 | < 2000 |  |  | EC50 ([2]; listed as 255 Isomer 1): 10000 to 30000 nM |
| N#CN1C[C@H](O)C[C@@H]1C(=O)N(c1ccc2c(c1)NCCC2)C(C(=O)NC1CCCCC1)c1cccnc1 (single isomer, unassigned) [Compound 755 Isomer 2] | 10000 to 30000 | 2000 to 10000 |  |  | EC50 [2]: < 2000 nM; IC50 [3, 5]: 2 to 10 µM |
| COCCCNC(=O)C(c1cccnc1)N(C(=O)[C@H]1C[C@@H](O)CN1C#N)c1ccc(C(C)(C)C)cc1 (single isomer, unassigned) [647 Isomer 2] | < 2000 |  | 2000 to 10000 |  | EC50 ([1]; read-out: 229E Mpro EC50): < 2000 nM; IC50 [3, 5]: 2 to 10 µM |
| CC1(C(=O)N(c2ccc(C(C)(C)C)cc2)C(C(=O)NC2CCCCC2)c2cccnc2)CN(C#N)C1 (stereo not drawn) [Compound 128, N-(4-tert-butylphenyl)-1-cyano-N-[2-(cyclohexylamino)-2-oxo-1-(3-pyridyl)ethyl]-3-methyl-azetidine-3-carboxamide] | 10000 to 30000 | 2000 to 10000 | 2000 to 10000 |  |  |
| N#CN1C[C@H](O)C[C@@H]1C(=O)N(c1ccc(C2CC2)cc1F)C(C(=O)NC1CCCCC1)c1cccnc1 (single isomer, unassigned) [Compound 763 Isomer 2] | 10000 to 30000 | 2000 to 10000 | < 2000 |  | IC50 [3, 5]: 2 to 10 µM |
| C[C@H]1CC[C@H](C(=O)N(c2ccc(C(C)(C)C)cc2)C(C(=O)NC2CCCCC2)c2cccnc2)N1C#N (single isomer, unassigned) [Compound 247 Isomer 1] | 2000 to 10000 | < 2000 | < 2000 |  |  |
| CC(C)(C)c1ccc(N(C(=O)[C@H]2C[C@@H](O)CN2C#N)C(C(=O)NC2CCCCC2)c2cccnc2)cc1 (single isomer, unassigned) [Compound 254] | < 2000 | < 2000 | < 2000 |  |  |
| CC(C)(C)c1ccc(N(C(=O)[C@H]2C[C@H](O)CN2C#N)C(C(=O)NC2CCCCC2)c2cccnc2)cc1 (single isomer, unassigned) [Compound 255 Isomer 2] | < 2000 |  |  |  | EC50 ([1]; read-out: 229E Mpro EC50): < 2000 nM; EC50 ([2]; listed as 255 Isomer 2): < 2000 nM |

From US20220380347A1, “INHIBITORS OF CYSTEINE PROTEASES AND METHODS OF USE THEREOF” (Pardes Biosciences, Inc., priority 2020, published 2022)
